From ChEMBL document CHEMBL3865849, “Development of N-(4-Phenoxyphenyl)benzenesulfonamide Derivatives as Novel Nonsteroidal Progesterone Receptor Antagonists” (ACS Med Chem Lett, 2016) come the findings set out here.

Where only a bound is given, the exact number is not on record here.

One assay deals with T1, Progesterone receptor (Homo sapiens, UniProt P06401).
T1 sequence (P06401 whole entry): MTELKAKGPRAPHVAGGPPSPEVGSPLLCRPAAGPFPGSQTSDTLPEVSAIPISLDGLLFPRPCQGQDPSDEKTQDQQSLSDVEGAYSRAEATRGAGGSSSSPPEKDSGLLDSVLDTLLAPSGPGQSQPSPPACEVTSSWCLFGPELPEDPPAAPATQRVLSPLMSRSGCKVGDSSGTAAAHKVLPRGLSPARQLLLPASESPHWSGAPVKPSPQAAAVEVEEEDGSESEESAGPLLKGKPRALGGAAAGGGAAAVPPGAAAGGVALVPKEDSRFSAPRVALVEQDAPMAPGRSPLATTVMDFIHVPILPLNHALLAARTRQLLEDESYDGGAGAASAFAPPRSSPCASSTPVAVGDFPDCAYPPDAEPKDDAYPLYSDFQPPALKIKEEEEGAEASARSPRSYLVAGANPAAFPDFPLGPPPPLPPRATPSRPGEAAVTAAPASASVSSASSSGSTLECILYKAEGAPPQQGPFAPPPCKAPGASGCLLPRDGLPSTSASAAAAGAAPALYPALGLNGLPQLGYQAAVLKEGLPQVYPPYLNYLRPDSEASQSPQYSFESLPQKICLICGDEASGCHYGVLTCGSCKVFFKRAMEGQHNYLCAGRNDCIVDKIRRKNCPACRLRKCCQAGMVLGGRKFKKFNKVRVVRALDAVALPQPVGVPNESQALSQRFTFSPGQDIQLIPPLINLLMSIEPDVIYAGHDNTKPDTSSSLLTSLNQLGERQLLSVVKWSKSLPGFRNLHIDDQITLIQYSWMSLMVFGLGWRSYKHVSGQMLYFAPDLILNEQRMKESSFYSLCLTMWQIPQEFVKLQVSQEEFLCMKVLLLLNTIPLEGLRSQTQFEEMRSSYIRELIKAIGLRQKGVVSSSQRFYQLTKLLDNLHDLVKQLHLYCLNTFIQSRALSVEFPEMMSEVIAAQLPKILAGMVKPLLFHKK
In words: Antagonist activity at progesterone receptor in human T47D cells incubated for 24 hrs in presence of P4 by alkaline phosphatase assay. The assay is classed as cell-based.
For `O=S(=O)(c1ccccc1Cl)N(Cc1ccccc1)c1ccc(Oc2ccccc2)cc1`, the IC50 (in general, the concentration that inhibits the measured activity by half) turned out to be 2200 nM.
In the case of `N#Cc1cccc(S(=O)(=O)Nc2ccc(Oc3ccccc3)cc2)c1`, the IC50 is 300 nM.
The same measure, in the same setting: then `O=S(=O)(Nc1ccc(Oc2ccccc2)cc1)c1cc(Cl)cc(Cl)c1`, with 320 nM; and `Cc1ccc(NS(=O)(=O)c2cccc(Cl)c2)cc1`, with 1300 nM; and `O=S(=O)(c1ccc(Cl)cc1)N(Cc1ccccc1)c1ccc(Oc2ccccc2)cc1`, with 3000 nM.
Still for that read-out and setting: under `O=S(=O)(Nc1ccc(Oc2ccccc2)cc1)c1cccc(F)c1` stands 220 nM; under `O=[N+]([O-])c1cccc(S(=O)(=O)Nc2ccc(Oc3ccccc3)cc2)c1`, 140 nM.
Still for that read-out and setting: under `CN(c1ccc(Oc2ccccc2)cc1)S(=O)(=O)c1cccc(Cl)c1` stands 650 nM.
For `COc1ccc(NS(=O)(=O)c2cccc(Cl)c2)cc1`, the IC50 was found to be 820 nM.
On the same count and under the same terms, then `COc1cccc(Oc2ccc(NC(=O)c3ccccc3)cc2)c1`, with 3800 nM; and `O=S(=O)(Nc1ccc(Oc2ccccc2)cc1)c1cccc(Br)c1`, with 110 nM.
The same measure, in the same setting: then `O=S(=O)(Nc1ccc(Oc2ccccc2)cc1)c1ccc2ccccc2c1`, with 1700 nM; and `O=S(=O)(Nc1ccc(-c2ccccc2)cc1)c1cccc(Cl)c1`, with 330 nM.
For the compound `O=S(=O)(Nc1ccc(Oc2ccccc2)cc1)c1ccc(Cl)c(Cl)c1`, the IC50 was 410 nM.
Same read-out and setting: under `O=S(=O)(c1cccc(Cl)c1)N(Cc1ccccc1)c1ccc(Oc2ccccc2)cc1` stands 2200 nM.
The same measure, in the same setting: then `O=S(=O)(Nc1ccc(Oc2ccccc2)cc1)c1cc(Cl)c(Cl)cc1Cl`, with 1600 nM.
The same measure, in the same setting: then `CC(C)c1ccc(NS(=O)(=O)c2cccc(Cl)c2)cc1`, with 510 nM.
`O=S(=O)(Nc1ccc(Oc2ccccc2)cc1)c1ccccc1`: the IC50 is 520 nM.
Still for that read-out and setting: under `O=S(=O)(Nc1ccc(OCc2ccccc2)cc1)c1cccc(Cl)c1` stands 810 nM; under `COc1ccc(S(=O)(=O)N(C)c2ccc(Oc3ccccc3)cc2)cc1`, 990 nM.
Still for that read-out and setting: then `COc1ccc(S(=O)(=O)Nc2ccc(Oc3ccccc3)cc2)cc1`, with 500 nM; and `O=S(=O)(Nc1ccc(Oc2ccccc2)cc1)c1cccc(Cl)c1`, with 170 nM.
Same read-out and setting: then `CN(c1ccc(Oc2ccccc2)cc1)S(=O)(=O)c1ccccc1Cl`, with 390 nM.
On to `O=S(=O)(Cc1ccccc1)Nc1ccc(Oc2ccccc2)cc1`, for which the IC50 worked out at 1600 nM.
Still for that read-out and setting: then `O=C(c1ccccc1)c1ccc(NS(=O)(=O)c2cccc(Cl)c2)cc1`, with 6000 nM; and `O=S(=O)(Nc1ccc(Br)cc1)c1cccc(Cl)c1`, with 1300 nM; and `COc1cccc(S(=O)(=O)N(C)c2ccc(Oc3ccccc3)cc2)c1`, with 470 nM.
Still for that read-out and setting: under `COc1ccc(S(=O)(=O)N(Cc2ccccc2)c2ccc(Oc3ccccc3)cc2)cc1` stands 3500 nM; under `O=S(=O)(Nc1ccc(Oc2ccccc2)cc1)c1ccc(Cl)cc1`, 670 nM.
The same measure, in the same setting: then `COc1cccc(Oc2ccc(NS(=O)(=O)c3ccccc3)cc2)c1`, with 490 nM; and `COc1cccc(S(=O)(=O)N(Cc2ccccc2)c2ccc(Oc3ccccc3)cc2)c1`, with 2600 nM; and `COc1cccc(Oc2ccc(NS(=O)(=O)c3cccc(OC)c3)cc2)c1`, with 370 nM.
For `COc1cccc(S(=O)(=O)Nc2ccc(Oc3ccccc3)cc2)c1`, the concentration for half-maximal inhibition (IC50) came to 250 nM.
Take `CS(=O)(=O)Nc1ccc(Oc2ccccc2)cc1`: the IC50 was found to be 2200 nM.
Still for that read-out and setting: under `COc1cccc(Oc2ccc(NS(=O)(=O)c3cccc(Cl)c3)cc2)c1` stands 270 nM.
The same measure, in the same setting: then `O=C(Nc1ccc(Oc2ccccc2)cc1)c1ccccc1`, with 2800 nM; and `COc1cccc(S(=O)(=O)Nc2ccc(Oc3ccc(O)cc3)c(C)c2)c1`, with 2000 nM.
As to `O=S(=O)(Nc1ccc(Oc2ccccc2)cc1)c1cccc(Cl)c1Cl`, the 50% inhibitory concentration (IC50) stood at 640 nM.
Still for that read-out and setting: under `O=S(=O)(Nc1ccc(Oc2ccccc2)cc1)c1cccc2ccccc12` stands 190 nM.
On the same count and under the same terms, under `O=S(=O)(Nc1ccccc1)c1cccc(Cl)c1` stands 1500 nM; under `O=S(=O)(Nc1ccc(Oc2ccccc2)cc1)c1ccccc1Cl`, 740 nM.
On to `CN(c1ccc(Oc2ccccc2)cc1)S(=O)(=O)c1ccc(Cl)cc1`, for which the IC50 was found to be 960 nM.
On the same count and under the same terms, under `COc1cccc(C(=O)Nc2ccc(Oc3ccc(O)cc3)c(C)c2)c1` stands 5000 nM.
Still for that read-out and setting: under `O=S(=O)(Nc1ccc(Cc2ccccc2)cc1)c1cccc(Cl)c1` stands 450 nM.

The next assay has as its target T1, Progesterone receptor. In words: Displacement of [1,2,6,7-3H]-PG from recombinant human GST-tagged PR-LBD (657 to 933 residues) expressed in baculovirus infected insect cells measured after 24 hrs by liquid scintillation counting method.
Consider `O=S(=O)(Nc1ccc(Oc2ccccc2)cc1)c1cccc(F)c1`, for which the IC50 is 310 nM.
Consider `O=[N+]([O-])c1cccc(S(=O)(=O)Nc2ccc(Oc3ccccc3)cc2)c1`, for which the IC50 turned out to be 140 nM.
Turning to `O=S(=O)(Nc1ccc(Oc2ccccc2)cc1)c1cccc(Br)c1`, the IC50 is 47 nM.
The same measure, in the same setting: then `O=S(=O)(Nc1ccc(-c2ccccc2)cc1)c1cccc(Cl)c1`, with 110 nM.
On the same count and under the same terms, under `O=S(=O)(Nc1ccc(Oc2ccccc2)cc1)c1cccc(Cl)c1` stands 62 nM; under `O=C(c1ccccc1)c1ccc(NS(=O)(=O)c2cccc(Cl)c2)cc1`, over 10000 nM.
